In patent US20260250325A1, “Antiviral Polypeptide Membrane Fusion Inhibitor, and Preparation Method and Application Thereof” (priority 2025, published 2026):
Where a SMILES comes first, the peptide text is derived from it. The star is where a group is joined. Succinyl(4-O-cholesteryl) = CC(C)CCC[C@@H](C)[C@H]1CC[C@H]2[C@@H]3CC=C4C[C@@H](OC(=O)CCC(=O)*)CC[C@]4(C)[C@H]3CC[C@]12C

Experiments:
[1] = molecular target: T1, hPIV-N51 (139-189) (Human parainfluenza 3 virus, UniProt P06828); test: SPR affinity to hPIV-N51 coupled on CM5 chip; type: binding
T1 construct: hPIV-N51 (139-189)
T1 sequence (P06828 139-189): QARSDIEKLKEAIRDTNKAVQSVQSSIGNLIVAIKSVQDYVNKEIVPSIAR
Description: hMPV and hPIV were two viruses having a typical Class I fusion protein-F protein. An F protein precursor F0 was cracked into F1 and F2 subunits. […] When the compound flowed through a chip surface, changes in an SPR signal were monitored in real time, binding and dissociation processes were recorded, and a binding rate constant (ka) and a dissociation rate constant (kd) were further obtained through kinetic analysis, thereby calculating an equilibrium dissociation constant (KD=kd/ka).
A CM5 chip with a catalog number 29149603, an amino coupling reagent kit with a catalog number BR100050, HBS-EP+Buffer (10×), sodium acetate (pH 4.0), and a 10 mM glycine-HCl buffer (pH 2.0) were all purchased from GE Health.
CM5 chip coupling: Channels 2 and 4 of the CM5 chip were activated for 7 min by using a freshly-prepared mixture of 50 mM Hydroxy succinimide (NHS) and 200 mM 1-(3-Dimethylaminopropyl)-3-ethylcarbodiimide (EDC) according to 1:1; and then, hMPV-N46 or hPIV-N51 was diluted and dissolved with sodium acetate with 4.0 pH to a concentration of 30 μM, with a flow rate of 10 μl/min and time of 600 s. An experimental buffer was HBS-EP+buffer (1×). Finally, the chip was blocked with 1 M ethanolamine. The instrument was set to a temperature of 25° C.
Affinity detection: the buffer used in the experiment was HBS-EP+buffer (1×), and a multi-cycle dynamic mode was used. Channels 1 and 3 of the chip served as blank reference channels; polypeptides to be detected sequentially flowed through Channels 2 and 4 at concentrations of 0 μM, 0.04 µM, 0.12 µM, 0.37 μM, 1.11 µM, 3.33 µM, 10 µM, and 30 μM; the flow rate was 30 μl/min, binding was performed for 180 s, and dissociation was performed for 120 s. Finally, the chip was regenerated by injecting 10 mM glycine (pH 2.0). The instrument was set to a temperature of 25° C.

[2] = system: hPIV3 C243 virus strain; type: cell-based, hPIV; conditions: LLC-MK2 cells, hPIV3 C243, plaque reduction; read-out: EC50 against hPIV3 virus
Description: Rhesus monkey kidney cells (LLC-MK2) were sourced from the ATCC, with a catalog number CCL-7.1. The cells were cultured in a DMEM culture solution in which 10% fetal bovine serum, 1% non-essential amino acids, 1% sodium pyruvate, 1% L-glutamine, 100 U/ml penicillin, and 100 μg/ml streptomycin were added.
An HPIV-3 plaque experiment culture medium consisted of a DMEM culture solution added with 2% fetal bovine serum, 1% non-essential amino acids, 1% sodium pyruvate, 1% L-glutamine, 100 U/ml penicillin, and 100 μg/ml streptomycin.
The hPIV Type 3 (hPIV3 C243) was sourced from the ATCC, with a catalog number VR-93.
This study used the plaque reduction experiment to detect the in-vitro activity of the test sample against the hPIV3 C243 virus strain, and Human Anti-HPIV3 Monoclonal Antibody, clone PIA174 was an experimental system control. The test sample and a system experimental antibody were tested at 8 concentrations in duplicated wells.
The LLC-MK2 cells were digested with trypsin and then diluted to a concentration of 400,000 cells per milliliter by using a cell culture solution containing 2% serum. The diluted cells were added to a 96-well cell test board, with 100 μL per well, corresponding to 40,000 cells per well. The cells were cultured overnight in a 37° C. incubator with 5% CO2.
On the next day, the sample diluted at a fold ratio and an equal volume of virus (approximately 200 PFU per well) were well mixed and incubated at 37° C. in 5% CO2 for 1 hour. Then, the culture solution in the 96-well cell test board was discarded, the sample virus mixed solution (100 μL) was added to the 96-well cell culture plate, and incubated at 37° C. in 5% CO2 for 2 hours. After 2 h, the sample virus mixed solution was discarded, 200 μL of an experiment culture medium containing the test sample with a corresponding concentration was added, and the culture solution contained 0.8% CMC. A final concentration of DMSO in the culture solution was 0.5%. A control antibody was directly added to the experiment culture solution containing 0.8% CMC. A cell control (cells, without compound treatment or viral infection) and a viral control (cell infection virus, without compound treatment) were set. The cells were cultured for 1 day in the 37° C. incubator with 5% CO2.
The cells were fixed with 4% paraformaldehyde, and then permeabilization was performed with 0.5% Triton X-100. After the plate was washed with DPBS, a hPIV specific antibody (1:2000 dilution) was added and incubated at 37° C. for 1.5 h. Then, a secondary antibody (1:500 dilution) was added and incubated at 37° C. for 1 hour. The secondary antibody was discarded, a TrueBlue solution was added, dyeing was performed for approximately 10 minutes; and the plate was washed with running water and then air-dried, and the number of spots in each well was counted by using a microplate imaging counter.
Raw data was used for calculating the antiviral activity of the samples, and a calculation formula was shown as follows.
% inhibition rate=100−(sample value-cell control average value)/(virus control average value-cell control average value)×100
Non-linear fitting analysis was performed on the inhibition rate of the sample by using GraphPad Prism (version 10), so as to calculate an EC50 value for the sample. A fitting formula was log (inhibitor) vs. response-Variable slope (four parameters).

SMILES	Kd [1] [nM]	EC50 [2] [nM]
CC[C@H](C)[C@H](NC(=O)[C@H](CCCCN)NC(=O)[C@H](CCC(=O)O)NC(=O)[C@H](CC(C)C)NC(=O)[C@H](CO)NC(=O)[C@H](CCC(N)=O)NC(=O)[C@H](CC(N)=O)NC(=O)[C@@H](NC(=O)[C@H](CCCCN)NC(=O)[C@H](CCC(=O)O)NC(=O)[C@H](CC(N)=O)NC(=O)[C@@H](NC(=O)[C@H](CCC(N)=O)NC(=O)[C@H](CO)NC(=O)[C@H](C)NC(=O)[C@H](CC(=O)O)NC(=O)[C@H](Cc1ccccc1)NC(=O)[C@@H](NC(=O)[C@H](CC(C)C)NC(=O)[C@H](CCC(=O)O)NC(=O)[C@H](CC(=O)O)NC(=O)[C@H](Cc1ccc(O)cc1)NC(C)=O)C(C)C)C(C)C)[C@@H](C)CC)C(=O)N[C@@H](CCCNC(=N)N)C(=O)N[C@@H](CCCCN)C(=O)N[C@@H](CO)C(=O)N[C@@H](CC(=O)O)C(=O)N[C@@H](CCC(=O)O)C(=O)N[C@@H](CC(C)C)C(=O)N[C@@H](CC(C)C)C(=O)N[C@@H](Cc1c[nH]cn1)C(=O)N[C@@H](CC(N)=O)C(=O)N[C@H](C(=O)N[C@@H](CCC(=O)O)C(=O)N[C@@H](C)C(=O)N[C@@H](C)C(=O)N[C@@H](C)C(=O)N[C@@H](CCCCN)C(=O)N[C@@H](CCCCNC(=O)CCC(=O)O[C@H]1CC[C@@]2(C)C(=CC[C@H]3[C@@H]4CC[C@H]([C@H](C)CCCC(C)C)[C@@]4(C)CC[C@@H]32)C1)C(N)=O)C(C)C [Compound 30] (Ac-YDELVFDASQVNEKINQSLEKIRKSDELLHNVEAAAKK(Succinyl(4-O-cholesteryl))-NH2)	1020	48.2
CC[C@H](C)[C@H](NC(=O)[C@H](CCCCN)NC(=O)[C@H](CCCCN)NC(=O)[C@H](CC(C)C)NC(=O)[C@H](CO)NC(=O)[C@H](CCC(=O)O)NC(=O)[C@H](CCC(=O)O)NC(=O)[C@@H](NC(=O)[C@H](CCCCN)NC(=O)[C@H](CCCCN)NC(=O)[C@H](CC(N)=O)NC(=O)[C@@H](NC(=O)[C@H](CCC(=O)O)NC(=O)[C@H](CCC(=O)O)NC(=O)[C@@H](NC(=O)[C@H](CCCCN)NC(=O)[C@H](CCCCN)NC(=O)[C@H](CC(=O)O)NC(=O)[C@H](Cc1ccccc1)NC(=O)[C@H](CCC(=O)O)NC(=O)[C@H](CC(=O)O)NC(=O)[C@H](Cc1c[nH]c2ccccc12)NC(C)=O)[C@@H](C)CC)C(C)C)[C@@H](C)CC)C(=O)N[C@@H](CCC(=O)O)C(=O)N[C@@H](CCC(=O)O)C(=O)N[C@@H](CO)C(=O)N[C@@H](CC(=O)O)C(=O)N[C@@H](CCCCN)C(=O)N[C@@H](CCCCN)C(=O)N[C@@H](CC(C)C)C(=O)N[C@@H](CCC(=O)O)C(=O)N[C@@H](CCC(=O)O)C(=O)N[C@H](C(=O)N[C@@H](CC(N)=O)C(=O)N[C@@H](C)C(=O)N[C@@H](CCC(=O)O)C(=O)N[C@@H](C)C(=O)N[C@@H](C)C(=O)N[C@@H](C)C(=O)N[C@@H](CCCCN)C(=O)N[C@@H](CCCCNC(=O)CCC(=O)O[C@H]1CC[C@@]2(C)C(=CC[C@H]3[C@@H]4CC[C@H]([C@H](C)CCCC(C)C)[C@@]4(C)CC[C@@H]32)C1)C(N)=O)C(C)C [Compound 40] (Ac-WDEFDKKIEEVNKKIEESLKKIEESDKKLEEVNAEAAAKK(Succinyl(4-O-cholesteryl))-NH2)	2270	22.2
CC[C@H](C)[C@H](NC(=O)[C@H](CCCCN)NC(=O)[C@H](CCCCN)NC(=O)[C@H](CC(C)C)NC(=O)[C@H](CO)NC(=O)[C@H](CCC(=O)O)NC(=O)[C@H](CCC(=O)O)NC(=O)[C@@H](NC(=O)[C@H](CCCCN)NC(=O)[C@H](CCCCN)NC(=O)[C@H](CC(N)=O)NC(=O)[C@@H](NC(=O)[C@H](CCC(=O)O)NC(=O)[C@H](CCC(=O)O)NC(=O)[C@@H](NC(=O)[C@H](CCCCN)NC(=O)[C@H](CCCCN)NC(=O)[C@H](CC(=O)O)NC(=O)[C@H](Cc1ccccc1)NC(=O)[C@H](CCC(=O)O)NC(=O)[C@H](CC(=O)O)NC(=O)[C@H](Cc1c[nH]c2ccccc12)NC(C)=O)[C@@H](C)CC)C(C)C)[C@@H](C)CC)C(=O)N[C@@H](CCC(=O)O)C(=O)N[C@@H](CCC(=O)O)C(=O)N[C@@H](CO)C(=O)N[C@@H](CC(=O)O)C(=O)N[C@@H](CCCCN)C(=O)N[C@@H](CCCCN)C(=O)N[C@@H](CC(C)C)C(=O)N[C@@H](CCC(=O)O)C(=O)N[C@@H](CCC(=O)O)C(=O)N[C@H](C(=O)N[C@@H](CC(N)=O)C(=O)N[C@@H](CCC(=O)O)C(=O)N[C@@H](C)C(=O)N[C@@H](C)C(=O)N[C@@H](C)C(=O)N[C@@H](CCCCN)C(=O)N[C@@H](CCCCNC(=O)CCC(=O)O[C@H]1CC[C@@]2(C)C(=CC[C@H]3[C@@H]4CC[C@H]([C@H](C)CCCC(C)C)[C@@]4(C)CC[C@@H]32)C1)C(N)=O)C(C)C [Compound 41] (Ac-WDEFDKKIEEVNKKIEESLKKIEESDKKLEEVNEAAAKK(Succinyl(4-O-cholesteryl))-NH2)	492	71.1
CC[C@H](C)[C@H](NC(=O)[C@H](CO)NC(=O)[C@H](C)NC(=O)[C@H](CC(=O)O)NC(=O)[C@H](Cc1ccccc1)NC(C)=O)C(=O)N[C@@H](CCC(=O)O)C(=O)N[C@@H](CCC(=O)O)C(=O)N[C@H](C(=O)N[C@@H](CC(N)=O)C(=O)N[C@@H](CCCNC(=N)N)C(=O)N[C@@H](CCCNC(=N)N)C(=O)N[C@H](C(=O)N[C@@H](CCC(=O)O)C(=O)N[C@@H](CCC(=O)O)C(=O)N[C@@H](CO)C(=O)N[C@@H](CC(C)C)C(=O)N[C@@H](CCCNC(=N)N)C(=O)N[C@@H](CCCNC(=N)N)C(=O)N[C@H](C(=O)N[C@@H](CCC(=O)O)C(=O)N[C@@H](CCC(=O)O)C(=O)N[C@@H](CO)C(=O)N[C@@H](CC(=O)O)C(=O)N[C@@H](CCCNC(=N)N)C(=O)N[C@@H](CCCNC(=N)N)C(=O)N[C@@H](CC(C)C)C(=O)N[C@@H](CCC(=O)O)C(=O)N[C@@H](CCC(=O)O)C(=O)N[C@H](C(=O)N[C@@H](CC(N)=O)C(=O)N[C@@H](C)C(=O)N[C@@H](CCC(=O)O)C(=O)N[C@@H](C)C(=O)N[C@@H](C)C(=O)N[C@@H](C)C(=O)N[C@@H](CCCCN)C(=O)N[C@@H](CCCCNC(=O)CCC(=O)O[C@H]1CC[C@@]2(C)C(=CC[C@H]3[C@@H]4CC[C@H]([C@H](C)CCCC(C)C)[C@@]4(C)CC[C@@H]32)C1)C(N)=O)C(C)C)[C@@H](C)CC)[C@@H](C)CC)C(C)C [Compound 42] (Ac-FDASIEEVNRRIEESLRRIEESDRRLEEVNAEAAAKK(Succinyl(4-O-cholesteryl))-NH2)	485	18.9
